# Several values for one entry are separate records, joined by “and”; a condition that tells them apart may be missing. Equal entries are not always repeated.
# Assays:
# [1] = Protonation constants of the ligands by pH-potentiometric titration; format: physicochemical; details: I = 0.15 M NaCl, 25 °C; for Σ log K2H: log K1H + log K2H
# Experimental: The concentration of the ligand solutions was determined by pH-potentiometric titration in the presence and absence of an excess (5–10 fold) of MnCl2. For determining the protonation constants of the investigated ligands, pH-potentiometric titrations were made by means of 0.2 M standardized NaOH in 2 and 3 mM ligand solutions in the pH-range of 1.75–11.85. All equilibrium measurements were performed at a constant 0.15 M NaCl ionic strength at 25 °C. The protonation and the stability constants of the Mn(II) complexes were determined by pH-potentiometric titrations (DOTP, DO3A, PCTA, ODO3A, DO3P) while owing to the slow formation rates of Mn(II) complexes formed with amide type ligands, the stability constants of DOTAM, DOTMA, DO3AM^H, PC3AM^H, PC3AM^Gly, PC3AM^Pip complexes were determined by out-of-cell pH-potentiomertry in combination with ^1H relaxometry. The metal-to-ligand concentration ratio in the solutions was 1:1. For the calculation of protonation constants of the ligands and the log KMnL and log KMnLHi values of the complexes, mL–pH data pairs (50–180), obtained in the pH range of 1.75–11.85 or r1obs-pH data pairs (10–15 batch samples) obtained in the pH range of 2–4.5 were used (the samples were equilibrated for 4–7 days). The equilibrium constants characterizing the deprotonation that occurs at basic pH were determined from the data obtained via direct pH-potentiometric titrations performed on the pre-formed complexes.
# The pH-potentiometric titrations were carried out with a Methrohm 888 Titrando titration workstation using a Metrohm-6.0233.100 combined electrode. The samples (6.00 mL) were thermostated at 25 °C. The samples were stirred and kept under inert gas (N2) to avoid the effect of CO2. KH-phthalate (pH = 4.005) and borax (pH = 9.177) buffers were used for the pH-calibration. The method proposed by Irving et al. was used for the calculation of H^+ concentrations from the measured pH values (Irving et al., [1967]). A 0.01 M HCl (I = 0.15 M set with NaCl) solution was titrated with standardized NaOH solution of known concentration (approx. 0.2 M). The correction factor obtained as difference of calculated pH and measured pH values was used to calculate the [H^+] in the samples. The ionic product of water was determined from the same titrations (HCl/NaOH) from the data collected in the pH range of 11.20–11.85.
# The protonation and complexation equilibria of the macrocyclic ligands and their Mn(II) complexes have been studied by pH-potentiometric and relaxometric methods in the presence of 0.15 M NaCl whose ionic strength mimics the physiological conditions. The protonation constants of the ligands were evaluated by fitting the pH-V(mL) base data pairs collected in the pH-potentiometric titrations. The protonation equilibria of the ligands can be described by Equation (2). (a comparison of previously published log K^H data available in the Supplementary Material) together with the constants of H4DOTA, cis- and trans-H2DO2A derivatives given for comparison. (2) KiH=[HiL]/[Hi-1L][H^+],i=1,2,…
# [2] = Dissociation kinetics of the Mn(II) complexes (acid catalyzed dissociation, metal or ligand exchange reactions); format: physicochemical; details: I = 0.15 M NaCl, 25 °C
# Experimental: The dissociation reactions were followed by UV-vis spectrophotometry at 269 nm for the pyclen derivatives or at 300 nm for other complexes in the pH range of 3.6–5.0 for the exchange reactions with Cu(II) and up to pH = 6.0 when Zn(II) was used as a ligand scavenger. The acid catalyzed dissociation reactions were performed in the HCl concentration range of 0.05–1.0 M. The concentration of the complexes in the samples was 0.25 mM, while the concentration of the exchanging metal ion in the metal initiated transchelation reactions was 10–40 times higher to ensure pseudo-first-order conditions. Relaxometry was used to follow the transchelation reactions of [Mn(DOTAM)]^2+, [Mn(DO3AM^H)]^2+, [Mn(DO3A)]^−, [Mn(PCTA)]^− and [Mn(ODO3A)]^− with Cu(II)/Zn(II) ions in the pH range of 3.6–5.5 (Figures S17–S19 in Supplementary Material). The concentration of the complexes in these samples was set to 1.0–2.0 mM to achieve relatively large change during the dissociation reaction. […] The temperature was maintained at 25 °C and the ionic strength of the solutions was kept constant at 0.15 M with NaCl. N,N′-dimethyl- (DMP) and N-methyl-piperazine (NMP) buffers (log K2H = 4.18 and 4.90 at 25 °C and I = 0.15 M NaCl, respectively) were used at 0.05 M concentration to keep the pH constant. The pseudo-first-order rate constants (kobs) were calculated by fitting the absorbance or relaxivity-time data pairs to Equation (1) (1) Xt=(X0-Xe)e^-kobst+Xe where Xt, X0, and Xe are the absorbance or relaxivity at time t, at the start and at equilibrium, respectively. The calculations were performed with the computer program Micromath Scientist, version 2.0 (Salt Lake City, UT, USA) using a standard least-squares procedure.
# The kinetic inertness of the Mn(II) complexes is the other important parameter for the complexes considered for use in vivo. The inertness of Mn(II) complexes formed with trisubstituted 12-memberd macrocyclic ligands were characterized either by studying the rates of acid catalyzed dissociation or by studying transmetallation reactions occurring between the complexes and a suitable exchanging metal ion such as Zn(II) or Cu(II). The demetallation reactions of labile complexes were performed at high pH by following the ligand exchange reactions with trans-CDTA and DTPA ligands. The demetallation reactions were studied in the presence of a large Cu(II)/Zn(II)/trans-CDTA/DTPA excess or by using high acid concentration in order to ensure pseudo-first-order conditions (Equation 6). Scheme 1 outlines all the possible dissociation pathways for the Mn(II) complexes. […] The reactions of the released Mn(II) and L ligand with the exchanging L' and M' reactants are assumed to be very rapid.
# The rate of dissociation can be expressed by the Equation (6), where kobs is the pseudo-first-order rate constant and [Mn(L)]t is the total concentration of the species containing [Mn(L)] complex. The [Mn(L)]t will differ slightly depending on the experimental conditions (in the presence of a large metal or ligand excess). As [Mn(L)]t = [Mn(L)] + [Mn(HL)] + [Mn(H2L)] + [Mn(L)M] + [Mn(L)(L')] + [Mn(HL)(L')] for reactions performed at high pH (in the pH range of 3.0–5.0 often applied in Cu(II) exchange reactions) will involve fewer protonated species while the acid catalyzed dissociation reactions run in the strongly acidic media (0.1–1.0 M acid concentration range) predominantly contain protonated species ([Mn(L)]t = [Mn(L)]+[Mn(HL)]+[Mn(H2L)]). (6) -d[MnL]t/dt=kobs[MnL]t
# By taking into account the various complex species and the possible reaction pathways as well as the protonation and stability constants of the reactive intermediates, the following equation (Equation 7) can be derived to describe the rates of dissociation. […]
SMILES,log K1H ([1]; ligand protonation constant),log K2H ([1]; ligand protonation constant),log K3H ([1]; ligand protonation constant),log K4H ([1]; ligand protonation constant),log K5H ([1]; ligand protonation constant),Σ log K2H [1],t1/2 0.1 M HCl ([2]; half-life of dissociation calculated for 0.1 M H+),log K6H ([1]; ligand protonation constant),k1 (proton-assisted dissociation) [2],"k1 (proton-assisted dissociation) ([2]; stopped-flow in highly acidic condition, proton-assisted dissociation of the [Mn(HL)] complex)",k1 (proton-assisted dissociation) ([2]; ligand exchange reaction with trans-CDTA^4− or DTPA^5− in the pH range 8-9.5)
O=C(O)CN1CCNCCN(CC(=O)O)CCN(CC(=O)O)CC1 [DO3A],10.07 (5),8.93 (6),4.43 (9),4.11 (7),1.88 (7),19.00,,,0.45 M⁻¹ s⁻¹,,
O=P(O)(O)CN1CCNCCN(CP(=O)(O)O)CCN(CP(=O)(O)O)CC1 [DO3P],12.55 (2),11.37 (1),8.57 (2),7.02(2),5.36 (2),23.92,,1.84 (2),,,240000 M⁻¹ s⁻¹

# More lines, main results first:
log K1H ([1]; ligand protonation constant),log K2H ([1]; ligand protonation constant),log K3H ([1]; ligand protonation constant),log K4H ([1]; ligand protonation constant),log K5H ([1]; ligand protonation constant),Σ log K2H [1],t1/2 0.1 M HCl ([2]; half-life of dissociation calculated for 0.1 M H+),log K6H ([1]; ligand protonation constant),SMILES,k1 (proton-assisted dissociation) [2],"k1 (proton-assisted dissociation) ([2]; stopped-flow in highly acidic condition, proton-assisted dissociation of the [Mn(HL)] complex)",k1 (proton-assisted dissociation) ([2]; ligand exchange reaction with trans-CDTA^4− or DTPA^5− in the pH range 8-9.5)
9.97 (3),6.73 (5),3.22 (6),1.40 (9),,16.70,,,O=C(O)CN1CCN(CC(=O)O)Cc2cccc(n2)CN(CC(=O)O)CC1 [PCTA],,0.112 M⁻¹ s⁻¹ and 0.109 M⁻¹ s⁻¹,
8.76 (3),4.10 (4),,,,12.86,,,NC(=O)CN1CCN(CC(N)=O)Cc2cccc(n2)CN(CC(N)=O)CC1 [PC3AM^H],0.0107 M⁻¹ s⁻¹,,
,,,,,,25 min,,O=C(CN1CCN(CC(=O)N2CCCCC2)Cc2cccc(n2)CN(CC(=O)N2CCCCC2)CC1)N1CCCCC1.[Mn+2] [[Mn(PC3AM^Pip)]^2+],(4.64 ± 0.04) × 10^−3 M^−1s^−1,,

# From PMC6099102, “Effect of the Nature of Donor Atoms on the Thermodynamic, Kinetic and Relaxation Properties of Mn(II) Complexes Formed With Some Trisubstituted 12-Membered Macrocyclic Ligands” (Frontiers in Chemistry, 2018)
